# Assay results taken from patent US4001429A, “1-Cyclopropyl-1-phenyl-ω-amino-1-alkanols and 1-lower-alkylacyl derivatives as analgetics” (A. H. Robins Company, Incorporated, priority 1975, dated 1977).
# Structures can show the parent of a compound that is named as a salt.
# Experiments:
# mice = assay: analgesic activity in mice, modification of Nilsen's method; type: in vivo; settings: Mus musculus, ip; administered intraperitoneally to mice; read-out: ED50 analgetic dose
# Description: The analgesic activity of the 1-cyclopropyl-1-alkanoyloxy-1-phenyl-ω-amino alkane compounds of this invention were determined by a modification of Nilsen's method [Funderburk, W. H., et al, Arch. Int.
# [1] = test system: depressant effects which are induced in mice by tetrabenazine; assay: blocking the depressant effects induced in mice by intravenous tetrabenazine (modification of Englehardt et al.); type: in vivo; settings: Mus musculus, IP
# Description: The activity of the compounds was determined by their administration intraperitoneally to mice and their effectiveness in blocking the depressant effects which are induced in mice by the intravenous administration of 2-oxo-3-insobutyl-9,10-dimethoxy-1,2,3,4,6,7-hexahydro-11bh-benzo[a]quinolizine (tetrabenazine). The procedure used was a modification of Englehardt, E. L. et al, J. Med. Chem. 11 (2), 325(1968). The ED50 values of the compounds are given in Table I; the compounds of Examples 3, 5, 7 and 8 are the preferred compounds.
smiles,measurement,setting,value
"CCC(=O)OC(CCN(C)C)(c1ccccc1)C1CC1 (centres unmarked) [Example 10, 1-Cyclopropyl-3-dimethylamino-1phenyl-1-propionyloxypropane Hydrochloride]",ED50,mice,14.2 mg/kg
same,ED50,[1],7.7 mg/kg
